The results in this text go back to paper PMC11204923, “Marine Cytotoxin Santacruzamate A Derivatives as Potent HDAC1-3 Inhibitors and Their Synergistic Anti-Leukemia Effects with Venetoclax” (Marine Drugs, 2024).

What all share (type): biochemical
Assay [1] deals with T1, HDAC1 (Homo sapiens, UniProt Q13547).
T1 construct: purchased BPS Bioscience
Put plainly: In vitro HDAC inhibition fluorescence assay, HDAC1. The following applies: for inhibition at 0.01 µM: 10 nM; for inhibition at 0.01 µM / inhibition at 0.1 µM: read-out: Inhibition Rate of HDAC1 (%); for inhibition at 0.1 µM: 100 nM. As for the experimental part: (§1) All of the HDAC enzymes were purchased from BPS Bioscience. In vitro HDAC inhibition assays were conducted as previously described. In brief, 20 μL of recombinant HDAC enzyme solution (HDAC1-9, 11) was mixed with various concentrations of the tested compound (20 μL). […] After incubation at 37 °C for 2 h, the catalysis was stopped by the addition of 10 μL of developer containing 30 mg/mL trypsin and 6 μM trichostatin A (TSA). Then, 30 min later, the fluorescence intensity was measured using a microplate reader at excitation and emission wavelengths of 360 and 460 nm, respectively. The inhibition ratios were calculated from the fluorescence intensity readings of tested wells relative to those of control wells, and the IC50 curves and values were determined by GraphPad Prism 6.0, using the “log(inhibitor) vs. normalized response-variable slope” function.

Assay [2] addresses T2, HDAC3 (Homo sapiens, UniProt O15379).
T2 construct: purchased BPS Bioscience
Put plainly: In vitro HDAC inhibition fluorescence assay, HDAC3. The following applies: for inhibition at 0.01 µM: 10 nM; for inhibition at 0.01 µM / inhibition at 0.1 µM: read-out: Inhibition Rate of HDAC3 (%); for inhibition at 0.1 µM: 100 nM. As for the experimental part: as §1

In assay [3] the target is T3, HDAC2 (Homo sapiens, UniProt Q92769).
T3 construct: purchased BPS Bioscience
The experiment in a line: In vitro HDAC inhibition fluorescence assay, HDAC2. The protocol: as §1

T2 sequence (O15379 whole entry): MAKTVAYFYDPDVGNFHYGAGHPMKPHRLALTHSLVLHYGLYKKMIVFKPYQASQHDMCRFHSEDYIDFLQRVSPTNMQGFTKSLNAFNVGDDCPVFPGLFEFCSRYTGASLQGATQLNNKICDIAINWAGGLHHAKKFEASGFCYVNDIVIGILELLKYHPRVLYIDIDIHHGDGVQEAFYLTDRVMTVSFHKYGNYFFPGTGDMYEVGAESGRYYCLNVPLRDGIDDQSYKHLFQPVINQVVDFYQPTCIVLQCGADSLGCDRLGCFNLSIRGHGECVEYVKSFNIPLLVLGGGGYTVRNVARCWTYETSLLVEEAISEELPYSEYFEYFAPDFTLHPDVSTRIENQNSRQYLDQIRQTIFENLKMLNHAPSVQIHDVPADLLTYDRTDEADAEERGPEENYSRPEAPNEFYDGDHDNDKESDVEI
T2 sequence (Q9Y618 395-489 partner limits assumed): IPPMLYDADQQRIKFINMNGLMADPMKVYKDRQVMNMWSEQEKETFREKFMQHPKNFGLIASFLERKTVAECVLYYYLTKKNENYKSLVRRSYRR
T3 sequence (Q92769 whole entry): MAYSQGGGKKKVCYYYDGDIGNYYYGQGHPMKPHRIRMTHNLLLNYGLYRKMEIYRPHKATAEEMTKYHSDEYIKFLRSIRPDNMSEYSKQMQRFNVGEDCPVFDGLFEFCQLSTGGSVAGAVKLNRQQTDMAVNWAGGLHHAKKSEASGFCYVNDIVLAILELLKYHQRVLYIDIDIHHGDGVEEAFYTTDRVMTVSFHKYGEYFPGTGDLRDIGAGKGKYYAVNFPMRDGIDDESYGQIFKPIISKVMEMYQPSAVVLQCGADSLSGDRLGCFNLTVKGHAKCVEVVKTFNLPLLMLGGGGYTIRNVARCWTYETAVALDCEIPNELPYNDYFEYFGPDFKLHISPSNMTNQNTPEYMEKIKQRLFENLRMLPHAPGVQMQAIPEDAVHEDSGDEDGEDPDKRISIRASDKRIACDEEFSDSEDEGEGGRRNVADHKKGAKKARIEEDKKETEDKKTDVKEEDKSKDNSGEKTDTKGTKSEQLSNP
T1 sequence (Q13547 whole entry): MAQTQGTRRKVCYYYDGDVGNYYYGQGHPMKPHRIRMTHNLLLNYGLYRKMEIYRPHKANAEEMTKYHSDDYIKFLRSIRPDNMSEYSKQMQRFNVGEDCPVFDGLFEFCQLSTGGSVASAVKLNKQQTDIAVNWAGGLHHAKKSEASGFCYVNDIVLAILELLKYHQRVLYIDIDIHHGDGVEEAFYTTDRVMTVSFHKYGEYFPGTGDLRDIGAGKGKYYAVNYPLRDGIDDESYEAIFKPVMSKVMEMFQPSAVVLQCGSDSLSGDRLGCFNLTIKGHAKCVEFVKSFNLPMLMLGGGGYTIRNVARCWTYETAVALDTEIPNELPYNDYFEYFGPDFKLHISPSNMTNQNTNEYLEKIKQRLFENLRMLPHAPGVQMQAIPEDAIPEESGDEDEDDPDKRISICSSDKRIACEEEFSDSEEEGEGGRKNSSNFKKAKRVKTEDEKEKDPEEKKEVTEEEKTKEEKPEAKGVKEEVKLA

For orientation: inhibition means the relative decrease from the control value, in per cent. Regarding `CCCNNC(=O)CCC(=O)NCCc1ccccc1` [Compound 9a, 4-Oxo-N-phenethyl-4-(2-propylhydrazineyl)butanamide], the inhibition at 0.01 µM in assay [1] is 2.2 ± 2.3%; in assay [2], -0.6 ± 1.9%. In addition, the inhibition at 0.1 µM in assay [1] is 0.3 ± 1.7%; in assay [2] it was 11.1 ± 0.5%.
Consider `CCCNNC(=O)CCCC(=O)NCCc1ccccc1` [Compound 9b, 5-Oxo-N-phenethyl-5-(2-propylhydrazineyl)pentanamide], for which, in assay [1], the inhibition at 0.01 µM was -9.2 ± 1.4% and the inhibition at 0.1 µM amounted to 3.1 ± 1.1%. Also, in assay [2], the inhibition at 0.01 µM came to 11.5 ± 0.7% and the inhibition at 0.1 µM stood at 53.7%.
Taken in the same sequence, the figures for `CCCNNC(=O)CCCCC(=O)NCCc1ccccc1` [Compound 9c, 6-Oxo-N-phenethyl-6-(2-propylhydrazineyl)hexanamide] were -6 ± 1.2%, 27.5 ± 0.6%, 18.2 ± 2.9% and 61.9 ± 0.7%.
In the case of `CCCNNC(=O)CCCCCC(=O)NCCc1ccccc1` [Compound 9d, 7-Oxo-N-phenethyl-7-(2-propylhydrazineyl)heptanamide], the inhibition at 0.01 µM in assay [1] came to 5.58 ± 2.39%; in assay [2] it was 21.2 ± 1.5%. The inhibition at 0.1 µM amounted to 52 ± 2.86% in assay [1] and 76.82 ± 0.47% in assay [2].
For `CCCNNC(=O)CCCCCCC(=O)NCCc1ccccc1` [Compound 9e, 8-Oxo-N-phenethyl-8-(2-propylhydrazineyl)octanamide], in that order: 12 ± 0.9%, 38.8 ± 3%, 65.6 ± 0.1% and 85.5 ± 0.6%.
Taken in the same sequence, the figures for `CCCNNC(=O)CCCCCCCC(=O)NCCc1ccccc1` [Compound 9f, 9-Oxo-N-phenethyl-9-(2-propylhydrazineyl)nonanamide] were 15.9 ± 1.6%, 19.6 ± 8%, 57.1 ± 0.7% and 79.9 ± 0.8%.
For `CCCNNC(=O)c1ccc(C(=O)NCCc2ccccc2)cc1` [Compound 9g, N-Phenethyl-4-(2-propylhydrazine-1-carbonyl)benzamide], in that order: 23.5 ± 2%, 11.2 ± 8%, 30.1 ± 2.1% and 50.6 ± 5.4%.
With `CCCNNC(=O)c1ccc(CC(=O)NCCc2ccccc2)cc1` [Compound 9h, N-Phenethyl-2-(4-(2-propylhydrazine-1-carbonyl)phenyl)acetamide], the results for the inhibition at 0.01 µM in assay [1] and in assay [2] were 5.61 ± 1.6% and -4.61 ± 13.6%, respectively. Further, the inhibition at 0.1 µM in assay [1] was 10.1 ± 0.7%; in assay [2], -5.9 ± 0.6%.
Taken in the same sequence, the figures for `CCCNNC(=O)Cc1ccc(C(=O)NCCc2ccccc2)cc1` [Compound 9i, 4-(2-Oxo-2-(2-propylhydrazineyl)ethyl)-N-phenethylbenzamide] were 12.5 ± 0.2%, -0.8 ± 4.2%, 16.4 ± 1.2% and -3.1 ± 3.4%.
A word on the IC50: it is the midpoint of a concentration-inhibition curve. Low readings indicate greater potency, high ones weaker potency. On to `CCCNNC(=O)C=Cc1ccc(C(=O)NCCc2ccccc2)cc1` [Compound 9j, 4-(3-Oxo-3-(2-propylhydrazineyl)prop-1-en-1-yl)-N-phenethylbenzamide], for which, in assay [1], inhibition was half-maximal at 35.8 ± 3.6 nM (IC50), the inhibition at 0.01 µM turned out to be 32.8 ± 0.1% and the inhibition at 0.1 µM turned out to be 76.7 ± 0.3%. The same compound yielded a half-maximal inhibitory concentration (IC50) in assay [3] of 69.4 ± 3.4 nM.
For `CCCNNC(=O)CCc1ccc(C(=O)NCCc2ccccc2)cc1` [Compound 9k, 4-(3-Oxo-3-(2-propylhydrazineyl)propyl)-N-phenethylbenzamide], in that order: 122 ± 18.6 nM, 23.1 ± 2.1%, 67.9 ± 1.4% and 374 ± 21.7 nM.
In the case of `CCCNNC(=O)c1ccc(C=CC(=O)NCCc2ccccc2)cc1` [Compound 9l, N-Phenethyl-3-(4-(2-propylhydrazine-1-carbonyl)phenyl)acrylamide], the 50% inhibitory concentration (IC50) turned out to be 37.4 ± 5.8 nM in assay [1], 116 ± 11.4 nM in assay [3] and 6 ± 1.7 nM in assay [2]. Also, the inhibition at 0.01 µM in assay [1] amounted to 36.5 ± 2.1%; in assay [2], 78.1 ± 0.1%. In addition, the values for the inhibition at 0.1 µM in assay [1] and in assay [2] were 74.5 ± 0.3% and 87.2 ± 2.6%, respectively.
As to `CCCNNC(=O)c1ccc(CCC(=O)NCCc2ccccc2)cc1` [Compound 9m, N-Phenethyl-3-(4-(2-propylhydrazine-1-carbonyl)phenyl)propanamide], in assay [1], the inhibition at 0.01 µM was 21.2 ± 0.9% and the inhibition at 0.1 µM came out at 67.3 ± 2.8%. Besides, in assay [2], the inhibition at 0.01 µM stood at 27.2 ± 2.7% and the inhibition at 0.1 µM came to 80.7 ± 0.7%.
Taken in the same sequence, the figures for `CCCNNC(=O)CCCNC(=O)Cc1ccccc1` [Compound 14a, N-(4-Oxo-4-(2-propylhydrazineyl)butyl)-2-phenylacetamide] were -7 ± 2.6%, 2.3 ± 2.4%, 2.4 ± 2.9% and 18.2 ± 3.3%.
For `CCCNNC(=O)CCCCNC(=O)Cc1ccccc1` [Compound 14b, N-(5-Oxo-5-(2-propylhydrazineyl)pentyl)-2-phenylacetamide], in that order: -9.04 ± 0.1%, 7.7 ± 2.1%, 16.6 ± 3.2% and 45.2 ± 1.1%.
Taken in the same sequence, the figures for `CCCNNC(=O)CCCCCNC(=O)Cc1ccccc1` [Compound 14c, N-(6-Oxo-6-(2-propylhydrazineyl)hexyl)-2-phenylacetamide] were -6.8 ± 2.1%, 14.4 ± 2.4%, 16.1 ± 3.3% and 54.4 ± 0.7%.
With `CCCNNC(=O)CCCCCCNC(=O)Cc1ccccc1` [Compound 14d, N-(7-Oxo-7-(2-propylhydrazineyl)heptyl)-2-phenylacetamide], in assay [1], the inhibition at 0.01 µM came out at 1.9 ± 3.7% and the inhibition at 0.1 µM came to 43.2 ± 0.1%. Besides, in assay [2], the inhibition at 0.01 µM worked out at 21.2 ± 1.5% and the inhibition at 0.1 µM is 76.8 ± 0.4%.
Consider `CCCNNC(=O)CCCCCCCNC(=O)Cc1ccccc1` [Compound 14e, N-(8-Oxo-8-(2-propylhydrazineyl)octyl)-2-phenylacetamide], for which the inhibition at 0.01 µM came to 8.8 ± 3.7% in assay [1] and 23.1 ± 0.1% in assay [2]. In addition, the inhibition at 0.1 µM was 51.6 ± 0.9% in assay [1] and 71.5 ± 0.7% in assay [2].
Turning to `CCCNNC(=O)CCCCCCCCNC(=O)Cc1ccccc1` [Compound 14f, N-(9-Oxo-9-(2-propylhydrazineyl)nonyl)-2-phenylacetamide], in assay [1], the inhibition at 0.01 µM was 9.8 ± 0.4% and the inhibition at 0.1 µM worked out at 32.7 ± 1.2%. For the same compound, in assay [2], the inhibition at 0.01 µM worked out at 3.2 ± 10.6% and the inhibition at 0.1 µM was found to be 48.8 ± 1.1%.
Take `CCCNNC(=O)C=Cc1ccc(C(=O)NC2Cc3ccccc3C2)cc1` [Compound 19a, N-(2,3-Dihydro-1H-inden-2-yl)-4-(3-oxo-3-(2-propylhydrazineyl)prop-1-en-1-yl)benzamide]: in assay [1], the inhibition at 0.01 µM was found to be 8.1 ± 0.3% and the inhibition at 0.1 µM was determined as 39.9 ± 0.6%. In assay [2], the inhibition at 0.01 µM was 37.4 ± 0.1% and the inhibition at 0.1 µM amounted to 78.2 ± 0.5%.
For `CCCNNC(=O)C=Cc1ccc(C(=O)N2CCc3ccccc3C2)cc1` [Compound 19b, N′-Propyl-3-(4-(1,2,3,4-tetrahydroisoquinoline-2-carbonyl)phenyl)acrylohydrazide], in that order: -4.6 ± 2.1%, -0.4 ± 1.7%, -1.1 ± 2.3% and 18.3 ± 0.5%.
For `CCCNNC(=O)C=Cc1ccc(C(=O)N2CCc3cc(Br)ccc3C2)cc1` [Compound 19c, 3-(4-(6-Bromo-1,2,3,4-tetrahydroisoquinoline-2-carbonyl)phenyl)-N′-propylacrylohydrazide], in that order: 1.5 ± 1.5%, 27.2 ± 2.8%, 4.1 ± 9.9% and 38.1 ± 0.8%.
In the case of `CCCNNC(=O)C=Cc1ccc(C(=O)N2CCc3ccc(Br)cc3C2)cc1` [Compound 19d, 3-(4-(7-Bromo-1,2,3,4-tetrahydroisoquinoline-2-carbonyl)phenyl)-N′-propylacrylohydrazide], in assay [1], the inhibition at 0.01 µM was -1.4 ± 0.5% and the inhibition at 0.1 µM amounted to 38.2 ± 2.3%. Also, in assay [2], the inhibition at 0.01 µM was -0.4 ± 3.4% and the inhibition at 0.1 µM came to 34.8 ± 1.2%.
`CCCNNC(=O)C=Cc1ccc(CNc2ccccc2)cc1` [Compound 25a, 3-(4-((Phenylamino)methyl)phenyl)-N′-propylacrylohydrazide]: in assay [1], the IC50 amounted to 96.5 ± 1.1 nM, the inhibition at 0.01 µM stood at 14.2 ± 1.5% and the inhibition at 0.1 µM was 60.7 ± 0.7%. Further, in assay [3], the concentration for half-maximal inhibition (IC50) stood at 224 ± 19.4 nM. Besides, in assay [2], half-maximal inhibition (IC50) required 8.2 ± 0.9 nM, the inhibition at 0.01 µM was 49.2 ± 0.9% and the inhibition at 0.1 µM turned out to be 80.4 ± 0.7%.
For the compound `CCCNNC(=O)C=Cc1ccc(CNc2cccc3ccccc23)cc1` [Compound 25f, 3-(4-((Naphthalen-1-ylamino)methyl)phenyl)-N′-propylacrylohydrazide], the inhibition at 0.01 µM in assay [1] worked out at 31.3%; in assay [2], 25.7 ± 1.3%. Also, the values for the inhibition at 0.1 µM in assay [1] and in assay [2] were 71.2 ± 0.9% and 60.7 ± 0.5%, respectively.
